Measurements published in paper PMC10403511, “DNA-encoded chemical libraries yield non-covalent and non-peptidic SARS-CoV-2 main protease inhibitors” (Communications Chemistry, 2023).
“Also recorded” adds a separate entry of the source. Read-outs that look alike come from different tables or passages of the source.

Molecular target: T1, SARS-CoV-2 M^pro (Severe acute respiratory syndrome coronavirus 2, UniProt P0DTD1)
T1 construct: the gene for M^pro (ORF1ab residues 3264 to 3569, GenBank code: MN908947.3); Sumo fusion with M^pro cleavage site (SAVLQ↓SGFRK) (N, cleaved yes); 6xHis-tag behind PreScission site (SGVTFQ↓GP) (C); made in house; host or cells: E. coli BL21(DE3)
Experiment: M^pro enzyme inhibition assay, proteolytic cleavage of fluorescent peptide reporter, Ki by Morrison equation
Type: biochemical
Conditions: for decrease of activity compared to CDD-1733: from Ki values
Description: Hydrolysis of the fluorescent peptide was monitored at an emission wavelength of 460 nm with an excitation wavelength of 360 nm using a TECAN M200 plate reader. Initial hydrolysis rates of fluorescent peptide were plotted as a function of compound concentrations, and Ki values were obtained by fitting the data into the Morrison equation[32] with SE from triplicates.
inhibitors. […] The remaining activities (red dots) of Mpro towards fluorescent
peptide we re plotted as a function of compound concentrations and Ki values wa s calculated by fitting the da ta int o Morrison equation wit h standard error f romS6 […]

[1] = 25 nM Mpro with authentic termini (no His-tag), standard error from triplicates, Inactive: less than 50% inhibition with 25 µM compound, read-out: Mpro Ki
[2] = Fig. 2, Suppl. Fig. 1, construct not given, Inactive: inhibited M^pro activity by less than 90% with 25 μM, read-out: Ki
[3] = 25 nM Mpro with authentic termini (no His-tag), standard error from triplicates, Inactive: less than 50% inhibition with 25 µM compound
[4] = 25 nM Mpro-6-His, standard error from triplicates, Inactive: less than 50% inhibition with 25 µM compound in initial screening
[5] = Fig. 2, Suppl. Fig. 1, construct not given, Inactive: inhibited M^pro activity by less than 90% with 25 μM

CCC[C@H](NC(=O)c1cccc2nc(-c3cncc4ccccc34)n([C@H]3C[C@H](C(=O)NC)C3)c12)c1ccc(OC(F)F)cc1 [CDD-1780]
Ki [1]: 16 ± 2 nM
Ki [2]: 14 nM

CCC[C@H](NC(=O)c1cccc2nc(-c3cncc4ccccc34)n([C@H]3CC[C@H](C(=O)NC)C3)c12)c1ccc(C(F)(F)F)cc1 [CDD-1790]
Ki (read-out: Ki): 620 nM
Ki (read-out: Mpro Ki): 664 ± 66 nM

CCC[C@H](NC(=O)c1cccc2nc(-c3cncc4ccccc34)n([C@H]3C[C@H](C(=O)NC)C3)c12)c1cccc(C(F)(F)F)c1 [CDD-1795]
Ki [1]: 35 ± 5 nM
Ki [2]: 29 nM
decrease of activity compared to CDD-1733: approximately 2 fold

CCC[C@H](NC(=O)c1cccc2nc(-c3cncc4ccccc34)n(C(C)C)c12)c1ccc(C(F)(F)F)cc1 [CDD-1804]
Mpro Ki [3]: Inactive
Mpro-His Ki [4]: Inactive
Ki [5]: completely abolished; also recorded: greatly reduces potency

CCC[C@H](NC(=O)c1cccc2nc(-c3cncc4ccccc34)n(C3CCC3)c12)c1ccc(C(F)(F)F)cc1 [CDD-1806]
Ki [5]: greatly reduces potency
decrease of activity compared to CDD-1733: more than 14 fold

CCC[C@H](NC(=O)c1cccc2nc(-c3cncc4ccccc34)n(C3CCNCC3)c12)c1ccc(C(F)(F)F)cc1 [CDD-1818]
Ki (read-out: Ki): 1470 nM
Ki (read-out: Mpro Ki): 1710 ± 128 nM

CNC(=O)[C@H]1C[C@H](n2c(-c3cncc4ccccc34)nc3cccc(C(=O)N[C@@H](C)c4ccc(C(F)(F)F)cc4)c32)C1 [CDD-1829]
Ki [1]: 48 ± 5 nM
Ki [2]: 46 nM

CCC[C@H](NC(=O)c1cccc2nc(-c3cncc4ccccc34)n(CCCC(=O)NC)c12)c1ccc(C(F)(F)F)cc1 [CDD-1830]
Ki [1]: 6 ± 1 nM
Ki (25 nM Mpro-6-His, standard error from triplicates, Inactive: less than 50% inhibition with 25 µM compound in initial screening, read-out: Mpro-His Ki): 6 ± 1 nM
Ki [2]: 6 nM

CCC[C@H](NC(=O)c1cccc2nc(-c3cccnc3)n([C@H]3C[C@H](C(=O)NC)C3)c12)c1ccc(C(F)(F)F)cc1 [CDD-1831]
Mpro Ki [3]: Inactive
Mpro-His Ki [4]: Inactive
Ki [5]: total loss of activity; also recorded: inactive or exhibit greatly decreased potency

CNC(=O)[C@H]1C[C@H](n2c(-c3cncc4ccccc34)nc3cccc(C(=O)N[C@@H](C)c4ccccc4)c32)C1 [CDD-1841]
Ki (read-out: Ki): 571 nM
Ki (read-out: Mpro Ki): 565 ± 55 nM

CNC(=O)[C@H]1C[C@H](n2c(-c3cncc4ccccc34)nc3cccc(C(=O)NC(C)C)c32)C1 [CDD-1842]
Mpro Ki [3]: Inactive
Mpro-His Ki [4]: Inactive
Ki [5]: completely inactive

CCC[C@H](NC(=O)c1cccc2nc(-c3cncc4ccccc34)n([C@H]3C[C@H](C(=O)NC)C3)c12)c1ccccc1 [CDD-1843]
Mpro Ki: Inactive
Mpro-His Ki: Inactive

CNC(=O)CCCn1c(-c2ccc3cnccc3c2)nc2cccc(C(=O)N[C@@H](C)c3ccc4ccccc4c3)c21 [CDD-1884]
Ki: inactive or exhibit greatly decreased potency
Mpro Ki: Inactive
Mpro-His Ki: Inactive

CNC(=O)CCCn1c(-c2cccc3ccccc23)nc2cccc(C(=O)N[C@@H](C)c3ccc4ccccc4c3)c21 [CDD-1885]
Mpro Ki: Inactive
Mpro-His Ki: Inactive

CNC(=O)CCCn1c(-c2ccnc3ccccc23)nc2cccc(C(=O)N[C@@H](C)c3ccc4ccccc4c3)c21 [CDD-1906]
Mpro Ki: Inactive
Mpro-His Ki: Inactive

CNC(=O)CCCn1c(-c2cnccc2C)nc2cccc(C(=O)N[C@@H](C)c3ccc4ccccc4c3)c21 [CDD-1924]
Ki (read-out: Mpro Ki): 426 ± 47 nM

CNC(=O)CCCn1c(-c2cncc3ccccc23)nc2cccc(C(=O)NCc3ccc4ccccc4c3)c21 [CDD-1925]
Ki (read-out: Ki): 51 nM
Ki (read-out: Mpro Ki): 42 ± 5 nM

CNC(=O)CCCn1c(-c2ccc(N)nc2)nc2cccc(C(=O)N[C@@H](C)c3ccc4ccccc4c3)c21 [CDD-1926]
Ki: inactive or exhibit greatly decreased potency
Mpro Ki: Inactive
Mpro-His Ki: Inactive
